Experimental data reported in PubChem BioAssay (NCI).
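At the GI50, growth is halved. Definition used: TGI = concentration required for complete inhibition of growth.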

Assays:
Assay in all cases: NCI tumour cell line growth inhibition, 384-well format
HS 578T breast = test system: HS 578T breast
DU-145 prostate = test system: DU-145 prostate
OVCAR-5 ovarian = test system: OVCAR-5 ovarian
HOP-62 NSCLC = test system: HOP-62 NSCLC
SK-MEL-5 melanoma = test system: SK-MEL-5 melanoma
OVCAR-3 ovarian = test system: OVCAR-3 ovarian
786-0 renal = test system: 786-0 renal
A498 renal = test system: A498 renal
NCI-H522 lung = test system: NCI-H522 lung
MDA-MB-468 breast = test system: MDA-MB-468 breast
SK-MEL-28 melanoma = test system: SK-MEL-28 melanoma
UACC-257 melanoma = test system: UACC-257 melanoma
M14 melanoma = test system: M14 melanoma

N=C(N)c1ccc2nc(-c3cc(CC(=O)N[C@@H](CC(=O)O)C(=O)O)cc(-c4cc(S(N)(=O)=O)ccc4O)c3O)[nH]c2c1
GI50 (HS 578T breast): > 100 µM
TGI (HS 578T breast): > 100 µM
GI50 (DU-145 prostate): > 100 µM
TGI (DU-145 prostate): > 100 µM
GI50 (OVCAR-5 ovarian): > 100 µM
TGI (OVCAR-5 ovarian): > 100 µM
GI50 (HOP-62 NSCLC): > 100 µM
TGI (HOP-62 NSCLC): > 100 µM
GI50 (SK-MEL-5 melanoma): > 100 µM
TGI (SK-MEL-5 melanoma): > 100 µM
GI50 (OVCAR-3 ovarian): > 100 µM
TGI (OVCAR-3 ovarian): > 100 µM
GI50 (786-0 renal): > 100 µM
TGI (786-0 renal): > 100 µM
GI50 (A498 renal): > 100 µM
TGI (A498 renal): > 100 µM
GI50 (NCI-H522 lung): > 100 µM
TGI (NCI-H522 lung): > 100 µM
GI50 (MDA-MB-468 breast): > 100 µM
TGI (MDA-MB-468 breast): > 100 µM
GI50 (SK-MEL-28 melanoma): > 100 µM
TGI (SK-MEL-28 melanoma): > 100 µM
GI50 (UACC-257 melanoma): > 100 µM
TGI (UACC-257 melanoma): > 100 µM
GI50 (M14 melanoma): > 100 µM
TGI (M14 melanoma): > 100 µM
